Experimental findings from US6841661B2, “Glycopeptide antibacterial compounds, compositions containing same and methods of using same” (Princeton Univerisity, priority 1999, dated 2005) are described below.

One assay concerns MRSA COL. Put plainly: In vitro MIC panel assay (NCCLS broth microdilution). Type of assay: cell-based. The following applies: Staphylococcus aureus. The source says:
(§1) National Committee for Clinical Laboratory Standards (NCCLS) guidelines [Methods for Dilution Antimicrobial Susceptibility Tests for Bacteria that Grow Aerobically-Fourth Edition; Approved Standard (NCCLS Document M7-A4, January 1997)] are used to establish the assay, although variations are made to optimize the published method according to the specific needs of the present investigation.
(§2) The test panel currently includes eight enterococci and 13 staphylococci, which are selected based upon their antibiotic susceptibility profiles. The methicillin-sensitive Staphylococcus aureus (MSSA) strain MB2985 (Smith isolate) is used to assesses the potential for serum protein binding of the compounds. The paired Gram-negative strains ASP #49 (envA-) and ASP #50 (envA+) (M. Salvatore/N. Lee) are included to judge membrane effects. Table 3 presents a detailed description of the strains included in the panel, including some of the sources of the strains of bacteria.
(§3) The glycopeptide antibiotic teicoplanin is included whenever possible.
(§4) TSB, containing 10% HS* for vancomycin intermediate S. aurcus/methicillin-resistant S. aureus (VISA/MRSA) strains, is inoculated from an appropriate source (frozen broth or agar slant) and grown approximately 17 hr at 35° C. with shaking at 220 rpm. Cultures are grown in tubes with a volume of 5 ml for enterococci and 2 ml for all other strains.
(§5) Four milliliter (4 ml) overnight culture is added to 36 ml physiological saline to obtain tenfold dilutions (enterococci). Overnight culture (0.4 ml) is added to 39.6 ml saline to obtain 100-fold dilutions (all strains except enterococci). Diluted cultures are maintained on ice until time of inoculation of test plates.
(§6) The number of CFU/mL is determined on BHI agar plates, although this is not done routinely because titers of overnight cultures are relatively constant. The test media include: • BHI for enterococci and VISA/MRSA; • MH II (i.e., cation-adjusted Mueller-Hinton broth) for MRS, MSS and E. coli.; • MH II+HSA for MSSA is prepared as follows: • a. 2×MHII+86mg/ml HSA • b. Dissolve 4.3 g HSA in 50 ml autoclaved 2x MH II. • c. pH to 7.0 by adding 2M MOPS, sodium. • d. Filter sterilize using 0.22 μm Coming cellulose acetate filter, used because of reported low protein binding. • e. 1×MH II+43 mg/ml HSA • f. Dilute the 2×medium twofold and filter as above. 5.8.6. Preparation of Test Plates
(§7) Using a Denley liquid handling system (or similar automatic device), 100 μ1×medium is added to each well in columns 2-12 of a 96-well microtiter dish. Using a multichannel pipettor, 100 μl 2×medium is added to each well in column 1. Plates may be filled on the day prior to assay, wrapped in plastic bags and refrigerated.
(§8) Vancomycin, Schering 29482, and teicoplanin are prepared on a weight per volume basis using 10 mM 3-(N-morpholino)propane-sulfonic acid (MOPS) buffer pH 7. Test compounds are received in solution in appropriate solvent (typically as 1 mg/ml in DMSO) or are dissolved in appropriate solvent prior to further dilution in 10 mM MOPS buffer, ph7. Consistent with NCCLS guidelines, antibiotics are handled aseptically but are not otherwise sterilized.
(§9) 100 μl appropriately diluted antibiotic solution is added to the first well of the designated row of the 96-well microtiter dish and serially diluted by twofold across the row using the Denley liquid handling system. With the aid of a Dynatech NEC 2000 inoculator, each well of the microtiter dish is inoculated with 1.5 μl diluted overnight culture, yielding approximately 1-5×10^6 CFU/ml for enterococci and approximately 3-7×10^5 CFU/ml for all other strains. Dishes are placed in stacks of no more than five, wrapped in plastic bags and incubated at 35° C. • Indication of result(s) type (% INH, IC50, Zone size, etc.) • MIC=minimum inhibitory concentration ps 5.8.9. Interpretation of the Results on the Basis of Activity […]
(Broth dilution looks for growth in wells or tubes with falling amounts of substance.)

A further assay relates to MRCNS CL 227 (S. hom.). The assay is described as above. The class given is cell-based.
Text: as §1, §2, §3, §4, §5, §6, §7, §8, §9

The test system of the next assay is E. faecium RLA1. The assay is described as above. The following applies: Enterococcus faecium. Type of assay: cell-based.
Text: as §1, §2, §3, §4, §5, §6, §7, §8, §9

A further assay relates to MRCNS CL 171 (S. haem.). The assay is described as above. Type of assay: cell-based.
Text: as §1, §2, §3, §4, §5, §6, §7, §8, §9

In a further assay the test system is MRCNS CL 3069 (S. epi.). Described as above. Type of assay: cell-based.
Text: as §1, §2, §3, §4, §5, §6, §7, §8, §9

The subject of a further assay is E. faecalis MB2864. The description is as above. Type of assay: cell-based. The conditions noted are these: Enterococcus faecalis.
Text: as §1, §2, §3, §4, §5, §6, §7, §8, §9

Assay [1] concerns E. faecalis CL 5244 (VanB). Described as above. Type of assay: cell-based. The conditions noted are these: Enterococcus faecalis.
Text: as §1, §2, §3, §4, §5, §6, §7, §8, §9

In the next assay the test system is MRSA MH 76. The assay is described as above. Type of assay: cell-based, Staphylococcus aureus. The conditions noted are these: Staphylococcus aureus, MRSA.
Text: as §1, §2
The glycopeptide antibiotic teicoplanin is included whenever possible. […]
The number of CFU/mL is determined on BHI agar plates, although this is not done routinely because titers of overnight cultures are relatively constant. […]

The subject of assay [2] is Staphylococcus aureus strain MB2985. Description: In vivo mouse methicillin-sensitive Staphylococcus aureus septicemia protection. The arrangement: species or system ICR female mice. On the procedure:
Selected compounds of the invention are tested in an in vivo mouse model. Single dose subcutaneous antibiotic protection from septicemic infections is measured as described by Gill, C. J., J. J. Jackson, L. Gerckens, B. Pelak, R. Thompson, J. Sundelof, H. Kropp and H. Rosen. Antimicrob. Agents Chemother. 42:1996-2001 (1998). Survival is monitored for seven days. ED50's and LD50's are determined by the method of Knudsen and Curtis. J. Am. Stat. Assoc. 42:282-296 (1947). Septicemia is induced in 20 gram ICR (derived from CD-I) female mice by intraperitoneal infection with Staphylococcus aureus strain MB2985. Infection is given i.p. in Brain Heart Broth (BHB) at an infectious inoculum of 1.8×10^7 cfu/mouse. Drug is administered subcutaneously immediately after the infection is initiated.

Assay [3] concerns E. faecalis CL 4877 (VanB). Description: microbe, parasite or virus in culture. The class given is cell-based. The conditions noted are these: for MIC, CL4877: E. faecalis CL 4877 (VanB). The method, boiled down: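 Twofold broth microdilution per modified NCCLS M7-A4, 35 °C. Enterococci and VISA/MRSA in BHI (VISA/MRSA precultured in TSB + 10% HS), E. coli in MH II. Inocula ~1-5×10^6 CFU/ml for enterococci, ~3-7×10^5 CFU/ml otherwise. MIC is the lowest concentration with no visible growth, read at 18-20 hr (E. coli) or 22-24 hr.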

[4] abbreviates: mouse septicemia, S. aureus 2985 i.p. 1.8 × 10^7 cfu/mouse, single s.c. dose at 0 hr, survival seven days.

Each structure is given as a SMILES string. Values after ≈ are worked out from the molar mass of the structure shown.

What is called ED50 is the dose that gives a 50% effect, or the effect in half of the subjects.

Turning to `CN[C@H](CC(C)C)C(=O)N[C@H]1C(=O)N[C@@H](CC(N)=O)C(=O)N[C@H]2C(=O)N[C@H]3C(=O)N[C@H](C(=O)N[C@H](C(=O)O)c4cc(O)cc(O)c4-c4cc3ccc4O)[C@H](O)c3ccc(c(Cl)c3)Oc3cc2cc(c3O[C@@H]2O[C@H](CO)[C@@H](O)[C@H](O)[C@H]2O[C@H]2C[C@](C)(N)[C@H](O)[C@H](C)O2)Oc2ccc(cc2Cl)[C@H]1O` [Vancomycin, vancomycin, reference compound], the MIC against MRSA COL was determined as 1 µg/mL (≈ 0.69 µM); against MRCNS CL 227 (S. hom.), 1 µg/mL (≈ 0.69 µM); against E. faecium RLA1, 2 µg/mL (≈ 1.38 µM); in the assay on MRCNS CL 171 (S. haem.) it was 2 µg/mL (≈ 1.38 µM); against MRCNS CL 3069 (S. epi.) it was 2 µg/mL (≈ 1.38 µM); against E. faecalis MB2864, 2 µg/mL (≈ 1.38 µM). The MIC in assay [1] stood at 32 µg/mL (≈ 22.1 µM); against MRSA MH 76, 1 µg/mL (≈ 0.69 µM); in assay [3] (Enterococcus faecalis), 2050 µg/mL (≈ 1410 µM). In assay [2] (S. aureus 2985, ratio of s.c. ED50 to MIC), the ED50/MIC is listed as 2.33. This molecule also yielded an ED50 in assay [2] (Staphylococcus aureus, MB2985, mouse septicemia, S. aureus 2985 i.p. 1.8 × 10^7 cfu/mouse, single s.c. dose at 0 hr, survival seven days) of 1.17 mg/kg. In assay [2] (setting [4]), the “ED0 (s.c.)” value is on record as “≦0.195 mg/kg”. Moreover, the “ED100 (s.c.)” value in [2] (setting [4]) stood at 3.125 mg/kg. For the same molecule, the MIC, CL4877 in [3] (Table 9) and in assay [3] (Table 10) was 2050 µg/mL (≈ 1410 µM) in each case. Moreover, the “CL4877 (in vitro testing)” value in [3] (Tables 7 and 8, unit not given) was found to be 2048.
